Experimental data: ChEMBL document CHEMBL3351767, “The discovery of Polo-like kinase 4 inhibitors: design and optimization of spiro[cyclopropane-1,3'[3H]indol]-2'(1'H).ones as orally bioavailable antitumor agents” (J Med Chem, 2015)
In brackets after ≈: the same amount, converted by molar mass.

What was measured:
[1] = target: T1, Receptor-type tyrosine-protein kinase FLT3 (Homo sapiens, UniProt P36888); test: Inhibition of FLT3 (unknown origin) by FRET-based homogeneous assay
T1 sequence (P36888 whole entry): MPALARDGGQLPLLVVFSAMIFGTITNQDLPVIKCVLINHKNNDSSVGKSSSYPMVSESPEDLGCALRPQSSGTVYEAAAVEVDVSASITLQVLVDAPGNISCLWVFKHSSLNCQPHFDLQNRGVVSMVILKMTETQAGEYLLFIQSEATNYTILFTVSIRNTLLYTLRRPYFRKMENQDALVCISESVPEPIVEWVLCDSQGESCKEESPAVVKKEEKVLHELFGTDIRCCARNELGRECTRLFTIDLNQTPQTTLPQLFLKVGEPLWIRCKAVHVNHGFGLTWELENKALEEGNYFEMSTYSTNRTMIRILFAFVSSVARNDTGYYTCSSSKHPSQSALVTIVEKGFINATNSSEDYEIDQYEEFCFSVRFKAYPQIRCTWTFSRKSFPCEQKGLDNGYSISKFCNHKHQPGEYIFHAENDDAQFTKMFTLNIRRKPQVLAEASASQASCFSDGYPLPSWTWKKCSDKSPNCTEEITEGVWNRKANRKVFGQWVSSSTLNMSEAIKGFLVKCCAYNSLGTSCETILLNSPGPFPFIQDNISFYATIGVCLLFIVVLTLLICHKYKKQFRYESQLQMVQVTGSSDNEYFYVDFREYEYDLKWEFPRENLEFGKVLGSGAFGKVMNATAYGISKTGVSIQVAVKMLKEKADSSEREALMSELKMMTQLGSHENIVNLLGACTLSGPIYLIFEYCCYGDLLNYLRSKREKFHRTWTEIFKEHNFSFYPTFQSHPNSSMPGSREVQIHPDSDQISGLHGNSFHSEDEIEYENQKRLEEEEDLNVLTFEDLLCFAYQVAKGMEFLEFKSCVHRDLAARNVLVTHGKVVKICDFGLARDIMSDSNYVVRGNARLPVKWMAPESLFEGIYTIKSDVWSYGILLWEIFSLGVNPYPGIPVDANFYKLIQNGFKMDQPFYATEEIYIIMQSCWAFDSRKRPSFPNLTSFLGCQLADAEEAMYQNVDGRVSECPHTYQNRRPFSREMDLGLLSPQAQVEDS

[2] = target: Vascular endothelial growth factor receptor 2 (Homo sapiens, UniProt P35968); test: Inhibition of KDR (unknown origin) by FRET-based homogeneous assay
MCF7 = test: Cytotoxicity against human MCF7 cells after 5 days by SRB assay; type: functional; conditions: MCF7, 120 h
MDA-MB-468 = test: Cytotoxicity against human MDA-MB-468 cells after 5 days by SRB assay; type: functional; conditions: MDA-MB-468, 120 h
MDA-MB-231 = test: Cytotoxicity against human MDA-MB-231 cells after 5 days by SRB assay; type: functional; conditions: MDA-MB-231, 120 h
[3] = Cytotoxicity against human SKBR3 cells after 5 days by SRB assay; type: functional; conditions: SK-BR-3, 120 h
Cytochrome P450 1A2 = target: T2, Cytochrome P450 1A2 (Homo sapiens, UniProt P05177); test: Inhibition of CYP1A2 (unknown origin) using CEC substrate after 15 mins by fluorescence assay; type: ADME
T2 sequence (P05177 whole entry): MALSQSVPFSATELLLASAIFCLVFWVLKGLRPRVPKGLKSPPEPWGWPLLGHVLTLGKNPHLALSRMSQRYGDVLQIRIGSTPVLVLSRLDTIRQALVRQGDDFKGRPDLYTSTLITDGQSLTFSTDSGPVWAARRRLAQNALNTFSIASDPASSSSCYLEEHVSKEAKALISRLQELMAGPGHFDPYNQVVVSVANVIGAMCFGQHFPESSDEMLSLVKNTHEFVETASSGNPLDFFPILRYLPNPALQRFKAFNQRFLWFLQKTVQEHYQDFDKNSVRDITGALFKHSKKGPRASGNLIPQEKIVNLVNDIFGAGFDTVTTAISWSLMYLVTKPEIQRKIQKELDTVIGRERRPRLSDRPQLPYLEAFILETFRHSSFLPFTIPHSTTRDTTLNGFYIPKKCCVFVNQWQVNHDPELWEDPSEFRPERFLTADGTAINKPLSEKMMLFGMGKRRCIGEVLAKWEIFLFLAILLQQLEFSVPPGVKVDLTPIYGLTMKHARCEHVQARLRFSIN

Cytochrome P450 2C9 = Cytochrome P450 2C9 (Homo sapiens, UniProt P11712); test: Inhibition of CYP2C9 (unknown origin) using MFC substrate after 45 mins by fluorescence assay; type: ADME
Cytochrome P450 2C19 = Cytochrome P450 2C19 (Homo sapiens, UniProt P33261); test: Inhibition of CYP2C19 (unknown origin) using MFC substrate after 30 mins by fluorescence assay; type: ADME
Cytochrome P450 2D6 = Cytochrome P450 2D6 (Homo sapiens, UniProt P10635); test: Inhibition of CYP2D6 (unknown origin) using AMMC substrate after 45 mins by fluorescence assay; type: ADME
Cytochrome P450 3A4 = Cytochrome P450 3A4 (Homo sapiens, UniProt P08684); test: Inhibition of CYP3A4 (unknown origin) using BFC substrate after 30 mins by fluorescence assay; type: ADME
[4] = Cmax in SCID mouse at 25 mg/kg, po by LCMS/MS method; type: ADME, organism-based; design: dose 25 mg/kg, route oral; conditions: in vivo
[5] = AUC in SCID mouse at 25 mg/kg, po by LCMS/MS method; type: ADME, organism-based; design: dose 25 mg/kg, route oral; conditions: plasma
[6] = Aqueous solubility at pH 7.4; type: physicochemical; conditions: buffer
[7] = Half life in mouse liver microsomes at 1 uM in presence of NADPH by LC-MS method; type: ADME
[8] = Half life in human liver microsomes at 1 uM in presence of NADPH by LC-MS method; type: ADME
[9] = Cmax in SCID mouse at 50 mg/kg, ip after 8 hrs by LCMS/MS method; type: ADME, organism-based; design: dose 50 mg/kg, route intraperitoneal; conditions: in vivo
[10] = AUC in SCID mouse at 50 mg/kg, ip after 8 hrs by LCMS/MS method; type: ADME, organism-based; design: time < 8 hr, dose 50 mg/kg, route intraperitoneal; conditions: plasma

Sequence of Vascular endothelial growth factor receptor 2 (P35968 whole entry): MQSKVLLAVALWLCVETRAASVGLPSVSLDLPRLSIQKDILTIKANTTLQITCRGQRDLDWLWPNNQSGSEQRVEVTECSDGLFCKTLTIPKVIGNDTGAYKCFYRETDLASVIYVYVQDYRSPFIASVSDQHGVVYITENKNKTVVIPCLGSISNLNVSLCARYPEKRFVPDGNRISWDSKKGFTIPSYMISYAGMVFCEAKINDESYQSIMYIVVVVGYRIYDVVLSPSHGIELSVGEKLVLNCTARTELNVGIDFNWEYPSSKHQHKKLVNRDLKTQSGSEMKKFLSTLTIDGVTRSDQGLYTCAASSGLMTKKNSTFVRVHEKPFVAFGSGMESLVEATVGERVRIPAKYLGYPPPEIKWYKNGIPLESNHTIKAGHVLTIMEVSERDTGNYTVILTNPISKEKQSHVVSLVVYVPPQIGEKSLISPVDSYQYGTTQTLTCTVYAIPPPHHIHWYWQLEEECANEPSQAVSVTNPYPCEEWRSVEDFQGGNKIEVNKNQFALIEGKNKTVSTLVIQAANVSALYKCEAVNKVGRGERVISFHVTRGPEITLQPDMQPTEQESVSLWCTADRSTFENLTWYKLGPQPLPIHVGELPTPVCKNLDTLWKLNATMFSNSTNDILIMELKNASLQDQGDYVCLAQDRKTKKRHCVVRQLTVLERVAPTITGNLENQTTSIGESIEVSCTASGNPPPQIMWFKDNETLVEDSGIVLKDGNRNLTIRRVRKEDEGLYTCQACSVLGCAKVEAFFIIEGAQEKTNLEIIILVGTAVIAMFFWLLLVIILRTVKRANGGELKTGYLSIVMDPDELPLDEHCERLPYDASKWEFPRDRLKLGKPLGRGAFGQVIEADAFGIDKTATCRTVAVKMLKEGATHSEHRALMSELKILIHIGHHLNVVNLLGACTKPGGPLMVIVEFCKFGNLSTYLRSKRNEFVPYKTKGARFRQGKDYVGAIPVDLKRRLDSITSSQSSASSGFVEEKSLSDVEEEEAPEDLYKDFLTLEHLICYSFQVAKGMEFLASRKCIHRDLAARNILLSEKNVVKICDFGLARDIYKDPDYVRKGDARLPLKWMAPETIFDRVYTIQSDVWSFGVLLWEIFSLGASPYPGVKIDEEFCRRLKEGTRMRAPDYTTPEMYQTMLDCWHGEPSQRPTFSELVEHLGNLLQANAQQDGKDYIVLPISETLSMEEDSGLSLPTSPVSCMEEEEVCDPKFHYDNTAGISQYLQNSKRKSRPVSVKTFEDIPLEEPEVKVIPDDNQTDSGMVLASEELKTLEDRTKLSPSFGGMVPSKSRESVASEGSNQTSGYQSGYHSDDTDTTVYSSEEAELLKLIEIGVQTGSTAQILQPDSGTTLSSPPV
Sequence of Cytochrome P450 2C19 (P33261 whole entry): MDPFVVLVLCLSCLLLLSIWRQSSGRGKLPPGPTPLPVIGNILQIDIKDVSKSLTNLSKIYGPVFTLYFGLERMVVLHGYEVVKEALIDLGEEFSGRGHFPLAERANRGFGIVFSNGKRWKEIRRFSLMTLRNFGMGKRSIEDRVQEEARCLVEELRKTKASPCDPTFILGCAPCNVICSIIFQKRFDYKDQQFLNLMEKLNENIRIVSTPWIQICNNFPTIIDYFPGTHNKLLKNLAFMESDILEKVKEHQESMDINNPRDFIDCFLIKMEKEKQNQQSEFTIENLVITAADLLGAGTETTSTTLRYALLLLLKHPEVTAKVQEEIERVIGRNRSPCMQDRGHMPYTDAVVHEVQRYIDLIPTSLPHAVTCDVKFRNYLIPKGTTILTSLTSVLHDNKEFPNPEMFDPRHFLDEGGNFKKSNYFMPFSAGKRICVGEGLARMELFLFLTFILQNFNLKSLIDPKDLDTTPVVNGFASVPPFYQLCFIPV
Sequence of Cytochrome P450 2D6 (P10635 whole entry): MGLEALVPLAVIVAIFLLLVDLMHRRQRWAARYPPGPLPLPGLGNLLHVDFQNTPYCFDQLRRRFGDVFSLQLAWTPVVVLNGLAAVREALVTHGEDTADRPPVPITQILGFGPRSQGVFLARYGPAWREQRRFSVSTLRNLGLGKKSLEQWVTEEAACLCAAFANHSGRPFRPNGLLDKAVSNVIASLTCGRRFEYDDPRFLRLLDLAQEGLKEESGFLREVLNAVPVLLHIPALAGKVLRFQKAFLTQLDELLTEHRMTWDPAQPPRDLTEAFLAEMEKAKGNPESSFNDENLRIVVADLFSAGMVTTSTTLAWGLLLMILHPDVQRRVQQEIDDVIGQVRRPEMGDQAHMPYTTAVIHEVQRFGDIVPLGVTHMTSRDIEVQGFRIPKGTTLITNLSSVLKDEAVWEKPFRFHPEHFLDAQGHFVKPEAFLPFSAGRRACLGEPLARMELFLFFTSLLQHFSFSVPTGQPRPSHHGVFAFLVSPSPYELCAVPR
Sequence of Cytochrome P450 2C9 (P11712 whole entry): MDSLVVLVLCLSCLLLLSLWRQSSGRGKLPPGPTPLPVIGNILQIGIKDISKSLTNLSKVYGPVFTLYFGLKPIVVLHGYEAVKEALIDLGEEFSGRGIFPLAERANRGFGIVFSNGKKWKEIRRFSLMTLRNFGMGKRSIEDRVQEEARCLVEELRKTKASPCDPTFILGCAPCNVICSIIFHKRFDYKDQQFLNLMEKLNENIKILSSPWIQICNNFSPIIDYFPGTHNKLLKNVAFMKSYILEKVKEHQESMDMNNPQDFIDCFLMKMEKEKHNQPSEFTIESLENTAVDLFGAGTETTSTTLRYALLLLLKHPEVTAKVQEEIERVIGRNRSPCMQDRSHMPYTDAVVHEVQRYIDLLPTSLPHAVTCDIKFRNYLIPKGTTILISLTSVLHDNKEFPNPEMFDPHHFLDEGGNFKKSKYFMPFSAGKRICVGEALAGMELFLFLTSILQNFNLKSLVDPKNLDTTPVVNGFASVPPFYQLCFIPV
Sequence of Cytochrome P450 3A4 (P08684 whole entry): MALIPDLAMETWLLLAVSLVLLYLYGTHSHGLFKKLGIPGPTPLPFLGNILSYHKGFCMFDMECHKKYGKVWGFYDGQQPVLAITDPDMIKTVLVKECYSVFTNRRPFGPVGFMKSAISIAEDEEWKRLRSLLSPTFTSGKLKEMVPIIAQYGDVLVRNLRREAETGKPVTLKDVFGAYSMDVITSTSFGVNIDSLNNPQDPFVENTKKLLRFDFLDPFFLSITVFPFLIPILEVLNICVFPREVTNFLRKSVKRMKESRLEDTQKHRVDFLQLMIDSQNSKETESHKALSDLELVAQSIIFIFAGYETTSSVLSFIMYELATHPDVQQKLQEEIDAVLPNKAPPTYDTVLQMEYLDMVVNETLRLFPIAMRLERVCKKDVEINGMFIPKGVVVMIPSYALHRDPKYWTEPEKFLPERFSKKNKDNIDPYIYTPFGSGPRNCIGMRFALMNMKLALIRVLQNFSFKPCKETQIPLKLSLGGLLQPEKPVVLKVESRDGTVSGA

Row | IC50 [2] | SMILES | GI50 (MCF7) | GI50 (MDA-MB-468) | GI50 (MDA-MB-231) | GI50 [3] | further results
1 | 4900 nM | CN(C)Cc1ccc(/C=C/c2n[nH]c3cc([C@@H]4C[C@@]45C(=O)Nc4ccc(OC(F)F)cc45)ccc23)cc1 (relative stereo) | 25 nM | 5 nM | 4800 nM | 1600 nM | IC50 [1]: 32 nM
2 | – | O=C1Nc2ccc(F)cc2[C@]12C[C@H]2c1ccc2c(/C=C/c3ccc(CN4CCOCC4)cc3)n[nH]c2c1 | 900 nM | 20 nM | 720 nM | 10000 nM | IC50 (Cytochrome P450 1A2): > 10000 nM; IC50 (Cytochrome P450 2C9): 500 nM; IC50 (Cytochrome P450 2C19): 1000 nM; IC50 (Cytochrome P450 2D6): > 10000 nM; IC50 (Cytochrome P450 3A4): > 1000 nM; Cmax [4]: 3700 ng/mL; AUC [5]: 7940 ng·h/mL
3 | 2000 nM | COc1ccc2c(c1)[C@]1(C[C@H]1c1ccc3c(/C=C/c4ccc(N5CCN(C)CC5)nc4)n[nH]c3c1)C(=O)N2 (relative stereo) | 10 nM | 6 nM | 10 nM | 13400 nM | IC50 (Cytochrome P450 1A2): > 10000 nM; IC50 (Cytochrome P450 2C9): 1600 nM; IC50 (Cytochrome P450 2C19): 1600 nM; IC50 (Cytochrome P450 2D6): > 10000 nM; IC50 (Cytochrome P450 3A4): 2100 nM; solubility [6]: 0.19 µg/mL (≈ 0.375 µM); half-life at 1 µM [7]: 9 min; half-life at 1 µM [8]: 16 min; Cmax [9]: 200 ng/mL; AUC at 8 h [10]: 450 ng·h/mL
4 | – | Cc1ccc2c(c1)[C@]1(C[C@H]1c1ccc3c(/C=C/c4ccc(CN5CCOCC5)cc4)n[nH]c3c1)C(=O)N2 (relative stereo) | 80 nM | 30 nM | 560 nM | 8800 nM | –
5 | 12 nM | O=C1Nc2ccccc2[C@]12C[C@H]2c1ccc2c(/C=C/c3ccc(CN4CCCCC4)cc3)n[nH]c2c1 (relative stereo) | 600 nM | 500 nM | 900 nM | 800 nM | –
6 | 2100 nM | Cc1ccc(/C=C/c2n[nH]c3cc([C@@H]4C[C@@]45C(=O)Nc4ccccc45)ccc23)c(C)n1 (relative stereo) | 6800 nM | 70 nM | > 50000 nM | 50000 nM | IC50 [1]: 59 nM
7 | – | Cc1ccc2c(c1)[C@]1(C[C@H]1c1ccc3c(/C=C/c4ccc(CN(C)C)cc4)n[nH]c3c1)C(=O)N2 (relative stereo) | 0.01 nM | 0.05 nM | 2800 nM | 3400 nM | –
8 | – | CN(C)Cc1ccc(/C=C/c2n[nH]c3cc([C@@H]4C[C@@]45C(=O)Nc4ccc(Cl)cc45)ccc23)cc1 (relative stereo) | 0.01 nM | 0.06 nM | 930 nM | 3500 nM | –
9 | – | Cc1ccc(/C=C/c2n[nH]c3cc([C@@H]4C[C@@]45C(=O)Nc4ccccc45)ccc23)cn1 | 280 nM | 140 nM | 3800 nM | 7600 nM | –
10 | – | CCc1ccc2c(c1)[C@]1(C[C@H]1c1ccc3c(/C=C/c4ccc(CN(C)C)cc4)n[nH]c3c1)C(=O)N2 (relative stereo) | 240 nM | 10 nM | 2000 nM | 2000 nM | –
11 | 7900 nM | COc1ccc2c(c1)[C@]1(C[C@H]1c1ccc3c(/C=C/c4cc(F)c(CN5CCOCC5)c(F)c4)n[nH]c3c1)C(=O)N2 (relative stereo) | 50 nM | 60 nM | 1700 nM | 3700 nM | –
